Experimental data taken from patent US7479561B2, “4-(2,4-dichloro-5-methoxyphenyl)amino-6-methoxy-7-{[5-substituted-amino)methyl]-3-furyl}-3-quinolinecarbonitriles as kinase inhibitors” (Wyeth, priority 2004, dated 2009).
Values joined by “and” are separate entries in the source; they are usually repeats but may differ in a detail not shown here. Identical values can stand only once. Like-named read-outs stand apart in the source and are kept apart here.

Experiments:
[1] = biological target: Rat2 fibroblasts stably transformed with v-Src/Hu c-Src fusion gene (Homo sapiens, UniProt P12931, cells depend on it, form not given); assay: Anchorage Independent Src-transformed Fibroblast Proliferation Assay; assay type: cell-based, rat
Rat2 fibroblasts stably transformed with v-Src/Hu c-Src fusion gene, sequence (P12931 whole entry, stated change not applied, the tested form may be a part): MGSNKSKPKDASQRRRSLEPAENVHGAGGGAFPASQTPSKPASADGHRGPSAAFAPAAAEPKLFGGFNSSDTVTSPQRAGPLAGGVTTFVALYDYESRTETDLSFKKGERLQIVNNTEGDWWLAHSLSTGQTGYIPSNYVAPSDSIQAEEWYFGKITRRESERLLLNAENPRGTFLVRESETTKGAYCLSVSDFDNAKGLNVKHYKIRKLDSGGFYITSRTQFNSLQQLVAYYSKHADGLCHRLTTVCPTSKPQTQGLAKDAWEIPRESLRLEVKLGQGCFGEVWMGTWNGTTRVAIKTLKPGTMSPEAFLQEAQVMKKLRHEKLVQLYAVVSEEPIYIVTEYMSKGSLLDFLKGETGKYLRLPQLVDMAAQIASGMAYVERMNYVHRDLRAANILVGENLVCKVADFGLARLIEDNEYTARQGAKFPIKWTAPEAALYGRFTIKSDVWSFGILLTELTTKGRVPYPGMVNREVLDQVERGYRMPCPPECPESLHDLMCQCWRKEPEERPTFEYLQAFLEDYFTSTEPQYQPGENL
From the text: Rat2 fibroblasts stably transformed with a plasmid containing a CMV promotor controlled v-Src/Hu c-Src fusion gene in which the catalytic domain of human c-Src was inserted in place of the v-Src catalytic domain in the v-Src gene are used for the measurement of src dependent suspension growth.

[2] = biological target: T1, Recombinant human Src enzyme (Homo sapiens, UniProt P12931); assay: Src Kinase Assay (LANCE FRET); assay type: biochemical
T1 construct: purchased PanVera P3044
T1 sequence (P12931 whole entry): as the sequence (P12931 whole entry, stated change not applied, the tested form may be a part) above
Procedure: Recombinant human Src enzyme was obtained from PanVera (P3044). […] Homogeneous fluorescence resonance energy transfer kinase assays were performed using the europium/APC detection format (LANCE, Perkin Elmer). Src enzyme (10 ng) was mixed with biotinylated peptide (final concentration 2 μM), 50 mM Hepes (pH 7.5), 10 mM MgCl2, 20 ug/ml BSA, 0.001% Brij-35 (Sigma), 100 μM ATP, 1% DMSO. The kinase reaction was incubated for 70 min at 37° C. The reaction was stopped with EDTA at a final concentration of 30 mM EDTA/25 mM Hepes (pH 7.5)/10 μg/ml BSA. The mixture was combined with Eu-labeled anti-phosphotyrosine antibody PT66 (Perkin Elmer, AD0068) and Streptavidin Surelight-APC (Perkin Elmer, CR130-100) in 50 mM Hepes (pH 7.5)/20 μg/ml BSA, and incubated for 30 min according to manufacturer's specifications. […] Multiple entries for a given compound indicate that it was tested multiple times.

[3] = biological target: T2, Rat2 fibroblasts stably transformed with v-Src/Hu Lck fusion gene (Homo sapiens, UniProt P06239, cells depend on it, form not given); assay: Anchorage Independent Lck-transformed Fibroblast Proliferation Assay; assay type: cell-based, rat; details: suspension growth, MTS on Day 5; multiple entries = tested multiple times; read-out: Lck cells IC50
T2 construct: fused on or other part: v-Src of Rous sarcoma virus outside the catalytic domain (N-terminal unique/SH3/SH2 region and C-terminal tail); candidates are Schmidt-Ruppin A (P00524) and Prague C (P00526)
T2 sequence (P06239 whole entry, change not shown, the tested form may be a part): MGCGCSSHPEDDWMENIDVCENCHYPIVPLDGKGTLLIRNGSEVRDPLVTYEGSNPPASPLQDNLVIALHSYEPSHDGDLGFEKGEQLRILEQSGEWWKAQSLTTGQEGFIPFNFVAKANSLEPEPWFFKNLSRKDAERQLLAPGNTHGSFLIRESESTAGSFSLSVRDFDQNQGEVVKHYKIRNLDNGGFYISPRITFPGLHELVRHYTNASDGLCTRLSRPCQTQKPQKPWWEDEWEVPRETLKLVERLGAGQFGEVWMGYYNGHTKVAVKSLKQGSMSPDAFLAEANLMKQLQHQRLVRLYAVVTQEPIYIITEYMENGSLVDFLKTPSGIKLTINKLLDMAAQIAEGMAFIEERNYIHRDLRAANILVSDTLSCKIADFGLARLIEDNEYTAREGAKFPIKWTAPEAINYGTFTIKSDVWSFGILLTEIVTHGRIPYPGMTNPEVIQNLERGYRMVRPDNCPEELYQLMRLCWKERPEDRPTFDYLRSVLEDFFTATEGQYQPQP
From the text: Rat2 fibroblasts stably transformed with a plasmid containing a CMV promotor controlled v-Src/Hu Lck fusion gene in which the catalytic domain of human Lck was inserted in place of the v-Src catalytic domain in the v-Src gene are used for the measurement of src dependent suspension growth.

K562 Cells = assay: K562 cell assay; assay type: cell-based; details: Homo sapiens
Procedure: (§1) The cell assays were performed as noted in Cancer Research 63, 375-381 (2003).

HT29 cells = assay: HT29 Xenograft Assay; assay type: in vivo; details: 100 mg/kg oral gavage once a day for 14 days; at day 14; female nude mice
Procedure: All animal studies were conducted under an approved Institutional Animal Care and Use Committee protocol. HT29 cells were suspended to 50 million cells/ml and 0.2 ml of the cell suspension was injected into 6-7 weeks old female nude mice (Charles River, Wilmington, Mass.). […] At day 14 the T/C (growth of tumors in treated animals/growth of tumors in control animals) was 0.53.

Wild type c-Abl = biological target: T3, Wild type c-Abl (Homo sapiens, UniProt P00519); assay: Abl Kinase Assay (LANCE FRET); assay type: biochemical; details: 100 μM ATP; read-out: c-Abl enzyme IC50
T3 construct: purchased Panvera P3049
T3 sequence (P00519 whole entry): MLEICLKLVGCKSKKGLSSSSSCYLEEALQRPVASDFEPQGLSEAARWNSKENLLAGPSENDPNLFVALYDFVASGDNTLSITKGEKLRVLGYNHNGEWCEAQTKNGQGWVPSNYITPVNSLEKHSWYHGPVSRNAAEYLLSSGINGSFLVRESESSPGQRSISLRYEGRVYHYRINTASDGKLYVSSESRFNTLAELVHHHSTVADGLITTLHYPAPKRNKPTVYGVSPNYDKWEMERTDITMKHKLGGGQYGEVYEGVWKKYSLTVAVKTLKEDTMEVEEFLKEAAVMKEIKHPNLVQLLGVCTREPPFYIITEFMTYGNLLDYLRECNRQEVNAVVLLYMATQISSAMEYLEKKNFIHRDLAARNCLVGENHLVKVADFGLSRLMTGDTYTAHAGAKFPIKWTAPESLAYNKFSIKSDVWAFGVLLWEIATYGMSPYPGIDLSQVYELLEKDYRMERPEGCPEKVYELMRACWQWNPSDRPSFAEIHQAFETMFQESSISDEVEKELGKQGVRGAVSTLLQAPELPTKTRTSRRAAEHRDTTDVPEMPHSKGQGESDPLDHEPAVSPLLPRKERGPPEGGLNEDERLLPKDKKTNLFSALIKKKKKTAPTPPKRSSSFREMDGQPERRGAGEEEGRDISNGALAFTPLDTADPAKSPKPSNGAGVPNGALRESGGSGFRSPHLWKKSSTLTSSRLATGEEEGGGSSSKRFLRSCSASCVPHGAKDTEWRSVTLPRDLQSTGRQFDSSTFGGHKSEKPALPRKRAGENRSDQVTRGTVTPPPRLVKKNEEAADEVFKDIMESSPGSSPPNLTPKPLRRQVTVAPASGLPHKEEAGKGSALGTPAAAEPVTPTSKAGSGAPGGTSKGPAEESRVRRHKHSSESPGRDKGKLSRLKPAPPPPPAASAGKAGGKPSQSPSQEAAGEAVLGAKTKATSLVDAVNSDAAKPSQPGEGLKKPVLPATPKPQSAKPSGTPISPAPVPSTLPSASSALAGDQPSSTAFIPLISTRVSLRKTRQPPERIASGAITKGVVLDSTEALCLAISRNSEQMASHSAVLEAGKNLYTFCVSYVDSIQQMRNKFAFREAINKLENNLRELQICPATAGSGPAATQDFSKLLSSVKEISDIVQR
Procedure: Wild type c-Abl was purchased from Panvera (P3049). Biotinylated peptide for the Abl kinase assay was obtained from Synpep (Biotin-NH-[…]-COOH). Homogeneous fluorescence resonance energy transfer kinase assays were performed using the europium/APC detection format (LANCE, Perkin Elmer). Abl enzyme (2.5 ng c-Abl) was mixed with biotinylated peptide (final concentration 2 μM), 50 mM Hepes (pH 7.5), 10 mM MgCl2, 20 ug/ml BSA, and 0.001% Brij-35 (Sigma). Compound was added with a final DMSO concentration of 1%, and incubated for ten minutes at 27° C. The kinase reaction was initiated by addition of ATP to a final concentration of 100 μM, and incubated for 30 minutes at 27° C. The reaction was stopped with EDTA at a final concentration of 30 mM EDTA/25 mM Hepes (pH 7.5)/10 μg/ml BSA. The mixture was combined with Eu-labeled phosphotyrosine antibody PT66 (Perkin Elmer, AD0068) and Streptavidin Surelight-APC (Perkin Elmer, CR130-100) in 50 mM Hepes (pH 7.5)/20 μg/ml BSA, and incubated for 30 minutes according to manufacturer's specifications. The reaction was monitored on a Wallac Victor with excitation at 340 nm and emission at 665 nm. Data was analyzed with the LSW data analysis plug-in for Excel (Microsoft).

KU812 Cells = assay: KU812 cell assay; assay type: cell-based; details: Homo sapiens
Procedure: as §1

[4] = suspension growth, MTS on Day 5, multiple entries = tested multiple times, read-out: Src cells IC50
[5] = 100 μM ATP, multiple entries = tested multiple times, read-out: Src enzyme IC50
[6] = single value, read-out: Src Cell IC50
[7] = single value, read-out: Src Enzyme IC50

IC50 [2, 5]	GI50 [3]	melting point	SMILES	other results
2 nM	–	–	CCN(CC)CCCN1CCN(Cc2cc(-c3cc4ncc(C#N)c(Nc5cc(OC)c(Cl)cc5Cl)c4cc3OC)co2)CC1 [Example 33, 4-[(2,4-dichloro-5-methoxyphenyl)amino]-7-[5-({4-[3-(diethylamino)propyl]piperazin-1-yl}methyl)-3-furyl]-6-methoxyquinoline-3-carbonitrile]	–
3.2 nM and 5.6 nM	–	–	COc1cc(Nc2c(C#N)cnc3cc(-c4coc(CN5CCN(c6c(C)cccc6C)CC5)c4)c(OC)cc23)c(Cl)cc1Cl [Example 35, 4-[(2,4-dichloro-5-methoxyphenyl)amino]-7-(5-{[4-(2,6-dimethylphenyl)piperazin-1-yl]methyl}-3-furyl)-6-methoxyquinoline-3-carbonitrile]	–

Continued, compound first:

SMILES	IC50 [2, 5]	GI50 [3]	melting point	other results
COc1ccc(N2CCN(Cc3cc(-c4cc5ncc(C#N)c(Nc6cc(OC)c(Cl)cc6Cl)c5cc4OC)co3)CC2)c(OC)c1 [Example 5, 4-[(2,4-Dichloro-5-methoxyphenyl)amino]-6-methoxy-7-(5-{[4-(2,4-dimethoxyphenyl)piperazin-1-yl]methyl}-3-furyl)-3-quinolinecarbonitrile]	3.5 nM and 3.1 nM	246 nM and 203 nM and 239 nM	223 to 225 °C	GI50 [1, 4]: 19 nM and 17 nM
COc1cc(Nc2c(C#N)cnc3cc(-c4coc(CN5CCN(C)CC5)c4)c(OC)cc23)c(Cl)cc1Cl [Example 1]	1 nM and 0.6 nM and 0.7 nM	–	179 to 181 °C	IC50 (K562 Cells): 5.6 nM; GI50 [1, 6]: 15 nM; GI50 [1, 4]: 16 nM; IC50 [2, 7]: 0.8 nM; T/C (growth of tumors in treated animals/growth of tumors in control animals) (HT29 cells): 0.53; IC50 (Wild type c-Abl): 0.4 nM and 0.27 nM and 0.25 nM; IC50 (KU812 Cells): 6 nM
COc1cc(Nc2c(C#N)cnc3cc(-c4coc(CN(C)C)c4)c(OC)cc23)c(Cl)cc1Cl [Example 2, 4-[(2,4-Dichloro-5-methoxyphenyl)amino]-6-methoxy-7-{5-[(dimethylamino)methyl]-3-furyl}-3-quinolinecarbonitrile]	–	11 nM	133 to 138 °C	–
COc1cc(Nc2c(C#N)cnc3cc(-c4coc(CN5CCN(c6ccccc6)CC5)c4)c(OC)cc23)c(Cl)cc1Cl [Example 4, 4-[(2,4-Dichloro-5-methoxyphenyl)amino]-6-methoxy-7-{5-[(4-phenylpiperazin-1-yl)methyl]-3-furyl}-3-quinolinecarbonitrile]	–	353 nM and 447 nM	201 to 203 °C	–
COc1cc(Nc2c(C#N)cnc3cc(-c4coc(CN5CCOCC5)c4)c(OC)cc23)c(Cl)cc1Cl [Example 3, 4-[(2,4-Dichloro-5-methoxyphenyl)amino]-6-methoxy-7-[5-(morpholin-4-ylmethyl)-3-furyl]-3-quinolinecarbonitrile]	–	–	164 to 166 °C	–
COc1cc(Nc2c(C#N)cnc3cc(-c4coc(CN5CCN(c6ccncc6)CC5)c4)c(OC)cc23)c(Cl)cc1Cl [Example 21, 4-[(2,4-dichloro-5-methoxyphenyl)amino]-6-methoxy-7-[5-[(4-pyridin-4-ylpiperazin-1-yl)methyl]-3-furyl}quinoline-3-carbonitrile]	2.2 nM and 1.9 nM	–	–	–
c1ccsc1 [thiophene, reference compound]	–	–	–	GI50 [1, 6]: 94 nM; IC50 [2, 7]: 3.7 nM
